# Experiments:
# MMP-2 = MMP-2 expression in human dermal fibroblasts, Western blot; format: cell-based; details: various concentrations, 48 hours
# Description: In another set of experiments, fibroblasts at 80% confluence were treated with either kynurenine or tryptophan at the indicated concentrations as mentioned in the result section in DMEM containing 2% FBS and antibiotics for 48 hours. Cells were then harvested by trypsinization and western blot analysis was performed.
# (§1) Cells were harvested by Trypsin/EDTA and lysed with cell lysis buffer containing 50 mM Tris-HCl (pH7.40), 150 mM NaCl, 10 mM EDTA, 5 mM EGTA, 1% TritonX-100™, 0.5% Igepal CA-630, 0.025% NaN3 and protease inhibitor cocktail (Sigma™). Cell debris was removed by centrifugation at 20,000×g for 10 minutes. The protein concentration in supernatant was determined using the MicroBCA™ method (Pierce™, Rockford, Ill.). Proteins in supernatant were mixed with protein sample loading buffer (final concentration: 60 mM Tris-HCl (pH 6.80), 2% SDS, 10% glycerol, 1.5% β-mercaptoethanol, 0.002% bromophenol blue) and size fractioned by 10% of SDS-polyacrylamide gel. After proteins were transferred onto nitrocellulose membrane by iBlot™ (Invitrogen Life Technologies™), non-specific binding were blocked with phosphate buffer saline twenty 20 (PBS-T) containing 5% skim milk for 1 hour. The membrane was then incubated with primary antibody overnight. […]
# A549 = experiment: MMP-1 expression in lung epithelial carcinoma cell line A549, Western blot; format: cell-based, human; details: A549, 12.5 to 150 μg/ml, 48 hours
# Description: The squamous cell carcinoma (UMSCC) cell line derived from patients with head and neck cancer (ATCC™, Manassas, Va.) were maintained in RPMI-1640 medium with 10% FBS. The Human keratinocyte cell line HACAT (ATCC) and the carcinomic human alveolar basal epithelial cell line A549 (ATCC™) were cultured in DMEM with 10% FBS. The diploid lung fibroblasts IMR-90 (ATCC™) were maintained in Minimum Essential Medium (MEM, Invitrogen™) with 10% FBS.
# Similarly, other cells such as synoviocytes, IMR-90, keratinocytes, UMSCC and A549 were treated with kynurenine at concentrations of 12.5 to 150 μg/ml in appropriate media for each cell type as described above for 48 hours. Cells were then harvested for western blot analysis.
# as §1, with “gel.” for “gel. After proteins were transferred onto nitrocellulose membrane by iBlot™ (Invitrogen Life Technologies™), non-specific binding were blocked with phosphate buffer saline twenty 20 (PBS-T) containing 5% skim milk for 1 hour. The membrane was then incubated with primary antibody overnight.”
# MEK = MEK phosphorylation in dermal fibroblasts, Western blot; format: cell-based, human; details: 100 μg/ml
# Description: as §1, with “overnight. After incubation with a secondary antibody for 1 hour, protein bands were visualized by an enhanced chemiluminescence (ECL™) detection system (Santa Cruz Biotechnology™, Santa Cruz, Calif.).” for “overnight.”
# rabbit ear wounds = experiment: Rabbit ear hypertrophic scar model, topical application; format: in vivo
# Description: Female rabbits (New Zealand white) weighing 4.5-5 kg were used for this study. The protocol was reviewed and approved by the University of British Columbia animal care committees. The rabbit ear model of hypertrophic scar was created as described previously (Rahmani-Neishaboor, et al., 2010). Briefly, 2 rabbits were anesthetized by intramuscular injection of ketamine (22.5 mg/kg) and xylazine (2.5 mg/kg) followed by isoflurane gas through tracheal intubation. Four wounds were created down to bare cartilage on the ventral side of each ear using an 8-mm dermal biopsy punch to remove full-thickness sections of skin. Antibiotics were applied on wounds daily until kynurenine treatment was started.
# Kynureine in CMC gel (Rahmani-Neishaboor et al., 2010) with a concentration of 500 μg/ml was applied topically to the wounds of the experimental group (0.1 ml per wound) daily for 3 weeks starting at 1 week post wounding. The wounds of the control group were received the treatment with an equal amount of cream alone daily.
# Animals were sacrificed on weeks 3 after treatments. Scars (10 mm punch biopsies) were harvested. Each scar was sectioned in two along its longitudinal axis and half of which was processed for routine histological analysis and another half was kept at −80° C. for future use.
# Scar elevation was quantified by measuring Scar Elevation Index (SEI) from the H & E stained tissue section. The SEI is a ratio of total height in the wound tissue to the normal tissue below the hypertrophic scar.
# According to a method previously reported (Gawronskao-Kozak B. et al. 2006), half of 8 mm diameter skin punches were weighed and frozen in −80° C. Skins were homogenized in 2 ml of PBS and stored at 4° C. overnight. The next day, 1 ml of 6N HCl was added and the mixture was heated at 120° C. for 5 hours. 20 μl of cooled samples and 50 μl of chloramine T solution were added to the 96-well plate and incubated at room temperature for 20 minutes. 50 μl of Erlich solution was then added and the mixture was incubated at 65° C. for 15 minutes. Absorbance was read at 570 nm. Hydroxyproline concentration was calculated by a standard curve.
# RNA was extracted by Trizol™ (Invitrogen Life Technologies™). Briefly, 1 ml of Trizol™ was added to the homogenized skin tissue. 250 μl of chloroform was added after the mixture was standed at room temperature for 5 minutes. Top aqueous phase was transferred into a new eppendorf tube after centrifugation for 10 minute at 20,000×g. Equal volume isopropanol was added to the aqueous phase and mixed gently. The pellet was washed with 1 ml of 75% ethanol after centrifugation for 20 minutes. RNA was dissolved in DEPC treated H2O and its concentration was measured by Nanodrop2000™. cDNA was synthesized by cDNA synthesis kit from Roche according to manufacture's introduction using 1 μg of total RNA in each sample. Quantitative real-time PCR for rabbit type-1 α1 collagen, MMP-1 and housekeeper gene β-actin were performed in ViiA7 (Invitrogen™). cDNA samples were added to a PCR reaction master mix containing STBR Green Master Mix™ (Rox) (Roche™, Indianapolis, Ind.). All reactions were performed in duplicate using the following cycle conditions: 1 cycle of 95° C. for 10 minutes, 40 cycles of 95° C. for 15 seconds and 60° C. for 1 minute. The expression level of type-1 α1 collagen and MMP-1 in each sample was normalised to β-actin. RT-PCR primers: rabbit type-1 α1 collagen: 5′-[…]-3′ (Forward), 5′-[…]-3′ (Reverse); MMP-1,5′-[…]-3′ (Forward), 5′-[…]-3′ (Reverse); β-actin, 5′-[…]-3′ (Forward), 5′-[…]-3′(Reverse).
# [1] = 50 μg in 0.1 ml CMC gel daily for three weeks
# [2] = topical, versus no treatment or gel alone
smiles,measurement,setting,value
Nc1ccccc1C(=O)CC(N)C(=O)O (racemic) [kynurenine],MMP-2 expression versus untreated fibroblasts,MMP-2,no significant difference
same,MMP-1 expression versus untreated controls,A549,did not significantly differ
same,time of peak MEK activation,MEK,8 h
same,MEK phosphorylation,MEK; different times,detection of the ERK1/2 upstream signal molecule MEK phosphorylation
same,collagen content (Massons' trichrome staining),rabbit ear wounds; [1],significant reduction
same,hydroxyproline content (index for tissue collagen content),rabbit ear wounds; [1],significant lower
same,average scar elevation index (SEI),"rabbit ear wounds; 50 μg in 0.1 ml CMC gel daily for three weeks, n=8, vehicle 1.978±0.442, untreated 2.098±0.324",1.172±0.156
same,scarring versus non-treated or vehicle-only wounds,"rabbit ear wounds; 50 μg in 0.1 ml CMC gel daily, after three weeks",significantly less scarring
same,wound closure versus untreated or CMC gel treated controls,"rabbit ear wounds; 50 μg in 0.1 ml CMC gel daily, three weeks from day 8 post-wounding, data not shown",no significant difference
same,expression of MMP-1 in rabbit ear skin (quantitative RT-PCR),rabbit ear wounds; [2],increased
same,expression of type-1 α1 collagen in rabbit ear skin (quantitative RT-PCR),rabbit ear wounds; [2],decreased
